Assay results taken from patent publication US9415055B2, “Cyclic amines” (H. Lundbeck A/S, priority 2012, dated 2016).

Biological target: P2X7 receptor (Homo sapiens (Human), UniProt Q99572)
Experiment: P2X7 FLIPR assay: antagonism of BzATP response in 293 HEK cells stably expressing P2X7 receptor
Format: cell-based
Conditions: FLIPR fluorescence (Fluo-4), agonist BzATP, 293 HEK cells stably transfected with P2X7 receptor
Procedure, shortened: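 Antagonist IC50 derived from FLIPR Tetra Fluo-4 calcium signal evoked by BzATP. Compound pre-incubation was 30 min at room temperature on P2X7-expressing HEK293 cells, seeded 24 h before in low-serum medium and dye-loaded 30 min at 37 °C then 30 min at RT.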

P2X7 receptor, sequence (Q99572 whole entry): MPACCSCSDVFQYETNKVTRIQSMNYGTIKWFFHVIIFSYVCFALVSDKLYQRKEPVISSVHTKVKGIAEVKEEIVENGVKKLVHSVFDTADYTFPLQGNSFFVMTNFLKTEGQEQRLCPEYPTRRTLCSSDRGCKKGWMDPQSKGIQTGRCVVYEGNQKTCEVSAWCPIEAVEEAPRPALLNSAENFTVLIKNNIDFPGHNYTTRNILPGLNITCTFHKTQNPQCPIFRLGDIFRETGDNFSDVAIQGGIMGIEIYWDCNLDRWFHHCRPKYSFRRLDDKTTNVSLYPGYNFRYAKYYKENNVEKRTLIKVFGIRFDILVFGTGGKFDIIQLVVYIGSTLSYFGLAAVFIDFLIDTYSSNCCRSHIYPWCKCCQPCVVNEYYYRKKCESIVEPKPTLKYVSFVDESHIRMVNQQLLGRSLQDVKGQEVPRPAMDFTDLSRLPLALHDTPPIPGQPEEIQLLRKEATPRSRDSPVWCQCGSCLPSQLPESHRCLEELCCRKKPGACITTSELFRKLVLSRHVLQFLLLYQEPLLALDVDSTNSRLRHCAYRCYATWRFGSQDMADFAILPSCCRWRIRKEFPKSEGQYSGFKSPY

Structure (SMILES) | IC50 [nM]
Cc1ncc(C(CNC(=O)c2cccc(Cl)c2Cl)N2CCCCC2C)cn1 (centres unmarked) [2,3-dichloro-N-(2-(2-methylpiperidin-1-yl)-2-(2-methylpyrimidin-5-yl)ethyl)benzamide] | 310
Cc1ncc(C(CNC(=O)c2ccccc2Cl)N2CCCCC2)cn1 (single isomer, unassigned; (+)) [(+)2-chloro-N-[2-(2-methylpyrimidin-5-yl)-2-(1-piperidyl)eth] [(+)2-chloro-N-(2-(2-methylpyrimidin-5-yl)-2-(piperidin-1-yl)ethyl)benzamide] | 59
Cn1cc(C(CNC(=O)c2ccccc2Cl)N2CCC(F)(F)CC2)cn1 (single isomer, unassigned; (-)) [(−)2-chloro-N-[2-(4,4-difluoro-1-piperidyl)-2-(1-methylpyraz] [(−)2-chloro-N-(2-(4,4-difluoropiperidin-1-yl)-2-(1-methyl-1H-pyrazol-4-yl)ethyl)benzamide] | 230
Cn1cc(C(CNC(=O)c2cc(F)cc(Cl)c2Cl)N2CCC(F)(F)CC2)cn1 (single isomer, unassigned; (+)) [(+)2,3-dichloro-N-[2-(4,4-difluoro-1-piperidyl)-2-(1-methylp] [(+)2,3-dichloro-5-fluoro-N-(2-(4,4-difluoropiperidin-1-yl)-2-(1-methyl-1H-pyrazol-4-yl)ethyl)benzamide] | 34
COc1ccc(C(CNC(=O)c2cccc(Cl)c2Cl)N2CCCCC2)cc1 (centres unmarked) [2,3-Dichloro-N-[2-(4-methoxy-phenyl)-2-piperidin-1-yl-ethyl]-benzamide] | 350
Cc1ncc(C(CNC(=O)c2ccccc2Cl)N2CCCC(F)(F)C2)cn1 (single isomer, unassigned; (+)) [(+)2-chloro-N-[2-(3,3-difluoro-1-piperidyl)-2-(2-methylpyrim] [(+)2-chloro-N-(2-(3,3-difluoropiperidin-1-yl)-2-(2-methylpyrimidin-5-A)ethyl)benzamide] | 85
O=C(NCC(c1cccnc1)N1CCOCC1)c1cccc(Cl)c1Cl (centres unmarked) [2,3-Dichloro-N-(2-morpholin-4-yl-2-pyridin-3-yl-ethyl)-benzamide] | 1100
CC(C)S(=O)(=O)c1ccc(Cl)c(C(=O)NCC(c2ccc(Cl)cc2)N2CCOCC2)c1 (single isomer, unassigned; (-)) [(−)2-chloro-N-(2-(4-chlorophenyl)-2-morpholinoethyl)-5-(isopropylsulfonyl)benzamide] | 47
Cc1ncc(C(CNC(=O)c2c(F)cccc2Cl)N2CCOCC2)cn1 (centres unmarked) [2-chloro-6-fluoro-N-(2-(2-methylpyrimidin-5-yl)-2-morpholinoethyl)benzamide] | 590
Cc1ncc(C(CNC(=O)c2cccc(F)c2Cl)N2CCCC(F)(F)C2)cn1 (single isomer, unassigned; (+)) [(+)2-chloro-N-[2-(3,3-difluoro-1-piperidyl)-2-(2-methylpyrim] [(+)2-chloro-3-fluoro-N-(2-(3,3-difluoropiperidin-1-yl)-2-(2-methylpyrimidin-5-yl)ethyl)benzamide] | 100
Cc1ncc(C(CNC(=O)c2cccc(F)c2Cl)N2CCOCC2)cn1 (centres unmarked) [2-chloro-3-fluoro-N-(2-(2-methylpyrimidin-5-yl)-2-morpholinoethyl)benzamide] | 1200
Cc1ccc(Cl)c(C(=O)NCC(c2ccncc2)N2CCOCC2)c1 (centres unmarked) [2-Chloro-5-methyl-N-(2-morpholin-4-yl-2-pyridin-4-yl-ethyl)-benzamide] | 2700
Cc1ncc(C(CNC(=O)c2cccc(OC(F)F)c2Cl)N2CCC(F)(F)CC2)cn1 (single isomer, unassigned; (-)) [(−)2-chloro-3-(difluoromethoxy)-N-[2-(4,4-difluoro-1-piperid] [(−)2-chloro-3-(difluoromethoxy)-N-(2-(4,4-difluoropiperidin-1-yl)-2-(2-methylpyrimidin-5-yl)ethyl)benzamide] | 37
O=C(NCC(c1ccc(C(F)(F)F)nc1)N1CCOCC1)c1c(F)cccc1F (single isomer, unassigned; (-)) [(−)2,6-difluoro-N-[2-morpholino-2-[6-(trifluoromethyl)-3-pyr] [(−)2,6-difluoro-N-(2-morpholino-2-(6-(trifluoromethyl)pyridin-3-yl)ethyl)benzamide] | 480

Now those with a lower IC50, led by results:

IC50 [nM] | Structure (SMILES)
25 | Cc1ncc(C(CNC(=O)c2c(Cl)ccc(F)c2Cl)N2CCC(F)(F)CC2)cn1 (single isomer, unassigned; (+)) [(+)2,6-dichloro-N-[2-(4,4-difluoro-1-piperidyl)-2-(2-methylp] [(+)2,6-dichloro-5-fluoro-N-(2-(4,4-difluoropiperidin-1-yl)-2-(2-methylpyrimidin-5-yl)ethyl)benzamide]
24 | O=C(NCC(c1ccc(C(F)(F)F)nc1)N1CCOCC1)c1cccc(C(F)(F)F)c1Cl (single isomer, unassigned; (+)) [(+)2-chloro-N-[2-morpholino-2-[6-(trifluoromethyl)-3-pyridyl] [(+)2-Chloro-N-[2-morpholino-2-[6-(trifluoromethyl)-3-pyridyl]ethyl]-3-(trifluoromethyl)benzamide]
19 | Cc1ncc(C(CNC(=O)c2cccc(F)c2Cl)N2CCC(F)(F)CC2)cn1 (single isomer, unassigned; (-)) [(−)2-chloro-N-[2-(4,4-difluoro-1-piperidyl)-2-(2-methylpyrim] [(−)2-chloro-3-fluoro-N-(2-(4,4-difluoropiperidin-1-yl)-2-(2-methylpyrimidin-5-yl)ethyl)benzamide]
15 | O=C(NCC(c1cnc(C(F)(F)F)nc1)N1CCOCC1)c1ccccc1Cl (single isomer, unassigned; (-)) [(−)2-chloro-N-[2-morpholino-2-[2-(trifluoromethyl)pyrimidin-] [(−)2-Chloro-N-[2-morpholino-2-[2-(trifluoromethyl)pyrimidin-5-yl]ethyl]benzamide]
12 | O=C(NCC(c1ccc(C(F)F)nc1)N1CCC(F)(F)CC1)c1ccccc1Cl (single isomer, unassigned; (-)) [(−)2-chloro-N-[2-[6-(difluoromethyl)-3-pyridyl]-2-(4,4-diflu] [(−)2-chloro-N-(2-(2-(difluoromethyl)pyridin-5-yl)-2-(4,4-difluoropiperidin-1-yl)ethyl)benzamide]
11 | O=C(NCC(c1cnc(C(F)(F)F)nc1)N1CCOCC1)c1cccc(F)c1Cl (centres unmarked) [2-chloro-3-fluoro-N-(2-morpholino-2-(2-(trifluoromethyl)pyrimidin-5-yl)ethyl)benzamide]
11 | O=C(NCC(c1cnc(C2CC2)nc1)N1CCC(F)(F)CC1)c1c(F)cccc1Cl (single isomer, unassigned; (-)) [(−)2-chloro-N-[2-(2-cyclopropylpyrimidin-5-yl)-2-(4,4-difluo] [(−)2-chloro-6-fluoro-N-(2-(2-cyclopropylpyrimidin-5-yl)-2-(4,4-difluoropiperidin-1-yl)ethyl)benzamide]
11 | COc1cccc(C(=O)NCC(c2cnc(C)nc2)N2CCC(F)(F)CC2)c1Cl (single isomer, unassigned; (-)) [(−)2-chloro-N-[2-(4,4-difluoro-1-piperidyl)-2-(2-methylpyrim] [(−)2-chloro-3-methoxy-N-(2-(4,4-difluoropiperidin-1-yl)-2-(2-methylpyrimidin-5-yl)ethyl)benzamide]
9.9 | O=C(NCC(c1cnc(C2CC2)nc1)N1CCC(F)(F)CC1)c1c(F)cccc1Cl (single isomer, unassigned; (+)) [(+)2-chloro-N-[2-(2-cyclopropylpyrimidin-5-yl)-2-(4,4-difluo] [(+)2-chloro-6-fluoro-N-(2-(2-cyclopropylpyrimidin-5-yl)-2-(4,4-difluoropiperidin-1-yl)ethyl)benzamide]
8.9 | Cc1ncc(C(CNC(=O)c2cccc(Cl)c2Cl)N2CCCCC2)cn1 (single isomer, unassigned; (+)) [(+)2,3-dichloro-N-[2-(2-methylpyrimidin-5-yl)-2-(1-piperidyl] [(+2,3-dichloro-N-(2-(2-methylpyrimidin-5-yl)-2-(piperidin-1-yl)ethyl)benzamide]
7.5 | O=C(NCC(c1cnc(C(F)(F)F)nc1)N1CCC(F)(F)CC1)c1c(Cl)cc(F)cc1Cl (single isomer, unassigned; (+)) [(+)2,6-dichloro-N-[2-(4,4-difluoro-1-piperidyl)-2-[2-(triflu] [(+)2,6-dichloro-4-fluoro-N-(2-(4,4-difluoropiperidin-1-yl)-2-(2-(trifluoromethyl)pyrimidin-5-yl)ethyl)benzamide]
6.6 | CN(C)c1ncc(C(CNC(=O)c2cccc(Cl)c2Cl)N2CCC(F)(F)CC2)cn1 (centres unmarked) [2,3-dichloro-N-(2-(4,4-difluoropiperidin-1-yl)-2-(2-(dimethylamino)pyrimidin-5-yl)ethyl)benzamide]
4.7 | O=C(NCC(c1cnc(C(F)(F)F)nc1)N1CCC(F)(F)CC1)c1c(Cl)cccc1Cl (single isomer, unassigned; (+)) [(+)2,6-dichloro-N-[2-(4,4-difluoro-1-piperidyl)-2-[2-(triflu] [(+)2,6-dichloro-N-(2-(4,4-difluoropiperidin-1-yl)-2-(2-(trifluoromethyl)pyrimidin-5-yl)ethyl)benzamide]
4.3 | O=C(NCC(c1cnc(C2CC2)nc1)N1CCC(F)(F)CC1)c1cccc(Cl)c1Cl (single isomer, unassigned; (+)) [(+)2,3-dichloro-N-[2-(2-cyclopropylpyrimidin-5-yl)-2-(4,4-di] [(+)2,3-dichloro-N-(2-(2-cyclopropylpyrimidin-5-yl)-2-(4,4-difluoropiperidin-1-yl)ethyl)benzamide]
3.5 | O=C(NCC(c1cnc(C(F)(F)F)nc1)N1CCC(F)CC1)c1cccc(Cl)c1Cl (single isomer, unassigned; (+)) [(+)2,3-dichloro-N-[2-(4-fluoro-1-piperidyl)-2-[2-(trifluorom] [(+)2,3-dichloro-N-(2-(4-fluoropiperidin-1-yl)-2-(2-(trifluoromethyl)pyrimidin-5-yl)ethyl)benzamide]
